Measured values as given in PMC8100298, “Histone deacetylase inhibitor resminostat in combination with sorafenib counteracts platelet-mediated pro-tumoral effects in hepatocellular carcinoma” (Scientific Reports, 2021).
pEC50: −log10 of the molar value. Where two headings read alike, the source gives them in different places.

Tests used:
Experiment in all cases: Efficacy screening assay
Type in all cases: cell-based
U2OS = conditions: 72 h, bone; for pEC50: read-out: EC50
Protocol: (§1) The experiment was performed by Oncolead GmbH & Co. KG (Karlsfeld , Germany), based on a standardized screening procedure . Cell lines were purchased directly from the ATCC, NCI and DSMZ cell line c ollections. Cells used for the study had undergone less than 20 passages. To ensure the absence of potential contamination and wrong assignment, all cell lines were tested using a whole genome assay (Agilent, USA). All cell lines were grown as recommended by the suppliers and with addition of 100 U/mL penicillin G and 100 µg/mL; streptomycin. Cell growth and treatments were performed in Nunclon D 96 -well plates (NUNC, Germany). The optimal seeding density for each cell line was determined to ensure exponential growth for the duration of the experiment. All cells growing without anti-cancer agents were sub-conﬂuent by the end of the treatment, as determined by visual inspection.
(§2) After an initial 24 h pre-growth period, the compounds were added. The vehicle concentration […]
(§3) was 0.1% DMSO. After incubation at 37°C for 72 h, the culture medium was aspirated, and the cells were precipitated by the addition of 10% trichloroacetic acid (Sigma-Aldrich, Missouri, US). After overnight incubation at 4°C, the plates were washed three times with deionized water. The precipitates were then stained with SRB (0.4% wt/v sulforhodamine B solution in 1% acetic acid, Sigma-Aldrich, Missouri, US). Afterwards, the plates were washed six times with 1% acetic acid to remove unbound stain. After drying the plates at room temperature, the bound SRB was solubilized with 10 mM Tris base and the optical density was measured at 520 nm using a Victor2 plate reader (Perkin Elmer, Germany). Blank OD values were subtracted from mean OD values for each concentration. The nonlinear curve ﬁtting and EC50 calculations were per formed using XLﬁt and algorithm “205” (ID Business […]
(§4) For comparison of EC50 values in Figure 1F, one-way ANOVA with multiple comparison testing (Tukey) was performed. Multiplicity adjusted p -values for the EC50 with sorafenib versus resminostat for each cell line and comparison between cell lines for sorafenib are presented (95% confidence interval for significance testing). For comparison of EC50 data in Figure 2B, one-way ANOVA with multiple comparison testing (Tukey) was performed. Multiplicity adjusted p-values with 95% confidence interval was applied. For the invasion assays in Figure 4, one-way ANOVA with multiple comparison testing (Tukey) was performed. Multiplicity adjusted p-values with 95% confidence interval was applied. The adjusted p-values comparing vehicle control without vs. with platelets and compound

UMUC3 = conditions: UMUC3, bladder; for pEC50: read-out: EC50
Protocol: as §1, §2, §3, §4

CASKI = conditions: 72 h, cervix; for pEC50: read-out: EC50
Protocol: as §1, §2, §3, §4

EFO21 = conditions: EFO21, ovary; for pEC50: read-out: EC50
Protocol: as §1, §2, §3, §4

MIAPACA2 = conditions: Homo sapiens, MIA PaCa-2, MIAPACA2, pancreas, 72 h
Protocol: as §1, §2, §3, §4

PLCPRF5 = conditions: Homo sapiens, PLC-PRF-5, PLCPRF5, liver, 72 h
Protocol: as §1, §2, §3, §4

NCIH358M = conditions: 72 h, lung; for pEC50: read-out: EC50
Protocol: as §1, §2, §3, §4

SKNAS = conditions: 72 h, brain; for pEC50: read-out: EC50
Protocol: as §1, §2, §3, §4

PANC1005 = conditions: PANC1005, pancreas; for pEC50: read-out: EC50
Protocol: as §1, §2, §3, §4

SF268 = conditions: SF268, brain; for pEC50: read-out: EC50
Protocol: as §1, §2, §3, §4

HS729 = conditions: HS729, muscle, 72 h
Protocol: as §1, §2, §3, §4

SKMEL5 = conditions: SKMEL5, skin; for pEC50: read-out: EC50
Protocol: as §1, §2, §3, §4

NCIH292 = conditions: NCIH292, lung; for pEC50: read-out: EC50
Protocol: as §1, §2, §3, §4

RD = conditions: 72 h, muscle; for pEC50: read-out: EC50
Protocol: as §1, §2, §3, §4

T24 = conditions: T24, bladder; for pEC50: read-out: EC50
Protocol: as §1, §2, §3, §4

SAOS2 = conditions: SAOS2, bone; for pEC50: read-out: EC50
Protocol: as §1, §2, §3, §4

[1] = Homo sapiens, log of EC50, negative, read-out: log(EC50) (converted)
[2] = log of EC50, negative, read-out: log(EC50) (converted)

CN(C)Cc1ccc(S(=O)(=O)n2ccc(/C=C/C(=O)NO)c2)cc1 [resminostat, Resminostat]
EC50 (U2OS; [1]): 1.17 µM | pEC50 (U2OS; Homo sapiens): 5.93 | pEC50 (U2OS): 5.94 | EC50 (UMUC3; Homo sapiens, UMUC3, 72 h, log of EC50, negative, read-out: log(EC50) (converted)): 3.24 µM | pEC50 (UMUC3; Homo sapiens, UMUC3, 72 h): 5.49 | pEC50 (UMUC3; 72 h): 5.49 | EC50 (CASKI; Homo sapiens, Ca-Ski, log of EC50, negative, read-out: log(EC50) (converted)): 2.63 µM | pEC50 (CASKI; Homo sapiens, Ca-Ski): 5.58 | pEC50 (CASKI): 5.58 | pEC50 (EFO21; 72 h): 5.14 | EC50 (EFO21; Homo sapiens, EFO-21, 72 h, log of EC50, negative, read-out: log(EC50) (converted)): 7.24 µM | pEC50 (EFO21; Homo sapiens, EFO-21, 72 h): 5.14 | EC50 (MIAPACA2; [2]): 2.69 µM | pEC50 (MIAPACA2; read-out: EC50): 5.57 | EC50 (PLCPRF5; [2]): 3.39 µM | pEC50 (PLCPRF5; read-out: EC50): 5.47 | EC50 (NCIH358M; NCI-H358M, log of EC50, negative, read-out: log(EC50) (converted)): 4.37 µM | pEC50 (NCIH358M; NCI-H358M): 5.36 | pEC50 (NCIH358M): 5.36 | EC50 (SKNAS; Homo sapiens, SK-N-AS, log of EC50, negative, read-out: log(EC50) (converted)): 3.55 µM | pEC50 (SKNAS; Homo sapiens, SK-N-AS): 5.45 | pEC50 (SKNAS): 5.45 | EC50 (PANC1005; Homo sapiens, Panc1005, 72 h, log of EC50, negative, read-out: log(EC50) (converted)): 5.75 µM | pEC50 (PANC1005; Homo sapiens, Panc1005, 72 h): 5.24 | pEC50 (PANC1005; 72 h): 5.24 | EC50 (SF268; Homo sapiens, SF-268, 72 h, log of EC50, negative, read-out: log(EC50) (converted)): 2.19 µM | pEC50 (SF268; Homo sapiens, SF-268, 72 h): 5.66 | pEC50 (SF268; 72 h): 5.66 | EC50 (HS729; [2]): 3.39 µM | pEC50 (HS729; read-out: EC50): 5.47 | EC50 (SKMEL5; Homo sapiens, SK-MEL-5, 72 h, log of EC50, negative, read-out: log(EC50) (converted)): 1.7 µM | pEC50 (SKMEL5; Homo sapiens, SK-MEL-5, 72 h): 5.77 | pEC50 (SKMEL5; 72 h): 5.77 | EC50 (NCIH292; Homo sapiens, NCI-H292, 72 h, log of EC50, negative, read-out: log(EC50) (converted)): 6.31 µM | pEC50 (NCIH292; Homo sapiens, NCI-H292, 72 h): 5.20 | pEC50 (NCIH292; 72 h): 5.20 | EC50 (RD; [1]): 1.55 µM | pEC50 (RD; Homo sapiens): 5.82 | pEC50 (RD): 5.82 | EC50 (T24; Homo sapiens, T-24, 72 h, log of EC50, negative, read-out: log(EC50) (converted)): 0.933 µM | pEC50 (T24; Homo sapiens, T-24, 72 h): 6.03 | pEC50 (T24; 72 h): 6.03 | EC50 (SAOS2; Homo sapiens, SAOS-2, 72 h, log of EC50, negative, read-out: log(EC50) (converted)): 1.91 µM | pEC50 (SAOS2; Homo sapiens, SAOS-2, 72 h): 5.72 | pEC50 (SAOS2; 72 h): 5.72
